Here are results for two compounds from publication PMC7477407, “In vivo studies of a peptidomimetic that targets EGFR dimerization in NSCLC” (Journal of Cancer, 2020).

For data set [1] the following is noted: 25 to 80 °C, 18 μM.
Description: Circular dichroism experiments were done using a Jasco J-815 CD Spectrometer (Jasco, Japan) at temperatures from 20 to 80 °C with a gradual 5 °C increase before reading. […] The spectra for samples were recorded from 185-350 nm wavelengths with a total of four scans for each temperature, and wavelength vs. ellipticity was plotted for an average of four scans.
Data set [2] has as its system A549 Red-FLuc lung tumors. Description: Antitumor assessment, experimental metastasis lung cancer model, bioluminescence imaging. As to conditions: 18 6 mg/kg, lapatinib 10 mg/kg, twice a week; A549-Red-FLuc lung tumors in nude mice. Type of data set: in vivo. The procedure: All animal studies were conducted in accordance with NIH guidelines for care, and use of laboratory animals and protocols were approved by the Institutional Animal Care and Use Committee at the University of Louisiana Monroe. Bioware® Brite Cell Line A549 Red-FLuc cells that had been engineered to express firefly luciferase (Perkin Elmer) were injected into the tail vein (4.5 × 10^6 cells in 200 µl PBS per mouse) of 6-week-old Foxn1^nu-nude mice. For bioluminescence imaging, mice were anesthetized with 1-3% isoflurane and 150 mg/kg of D-luciferin (PerkinElmer) in phosphate-buffered saline (PBS) was given by intraperitoneal injection. 8 min after injection, bioluminescence was imaged with an IVIS Lumina III Series (PerkinElmer), and regions of interest (ROI) were drawn around the bioluminescent signals and quantified as photons/second (p/s). Mice with tumors were divided into three groups viz. control (vehicle), 18 treatment, and lapatinib treatment. After two weeks of the inoculation of tumor cells, mice from the respective groups were injected intravenously with 18 (6 mg/kg) or lapatinib (10 mg/kg) or vehicle twice a week for the next three weeks. To evaluate the effect of the treatments, tumors were imaged, and bioluminescence was measured once a week. […]

A further data set relates to NCI-H1975. As to conditions: read-out: IC50, antiproliferative activity in NCI-H1975; NCI-H1975 EGFR mutated NSCLC cell line. How it is done: (§1) In a 96-well plate, 1 × 10^4 cells/well were seeded and incubated overnight at 37 °C and 5% CO2. The stock solution of the peptidemimetic was prepared by dissolving them in DMSO. Stock solutions of the compound and controls were diluted using the serum-free medium to prepare solutions of different concentrations of compounds with DMSO concentration not exceeding 1% (v/v) in the final solution in each well of a 96-well plate. […] A dose-response curve was generated using percentage cell viability vs. log concentration of compounds, and IC50 values were obtained using Prism® (GraphPad Software). Experiments were repeated three times to obtain standard deviation values.
(§2) In vivo Studies of a Peptidomimetic that Targets EGFR
(§3) Leeza Shrestha1, Sitanshu Singh1, Pravin Parajuli1, Achyut Dahal1, George Mattheolabakis1,
(§4) Sharon Meyer1, Joydeep Bhattacharjee2, Seetharama Jois1*
(§5) 1School of Basic Pharmaceutical and Toxicological Sciences, College of Pharmacy, University
(§6) of Louisiana Monroe, Monroe, LA 71201.
(§7) 2Biology Program, School of Sciences, University of Louisiana Monroe, Monroe, LA 71029.

The next data set deals with SKOV-3. The conditions noted are these: read-out: IC50, antiproliferative activity in SKOV-3; SKOV-3 ovarian cancer, HER2+. How it is done:
as §1, §2, §3, §4, §5, §6, §7

The conditions of data set [3]: mouse, in vivo, iv.
Description: (§10) Female Foxn1-nude, 6-7 week-old mice (Envigo) were used in all studies.
(§11) After administration of the compound, mice were sacrificed at certain time intervals (0, 0.25, 0.75, 2, 4, 6, 12 and 24 h), and blood samples were taken to study the amount of compound remaining in blood circulation. The samples were then centrifuged at 1000 rpm for 5 min. The separated supernatant serum samples were precipitated by acetonitrile to extract the analytes and passed through the Sep-Pak (Waters) column. Chromatographic separation was performed on an HPLC. Mass spectrometry was used to identify the correct molecular ion of the intact compound.
(§12) Blood samples were collected at different time intervals, and analysis of the sample was accomplished using HPLC and mass spectrometry. […] For pharmacokinetic parameter analysis, PKSolver software was used [50]. […] Based on the AIC, SC, and curve fitting by the PKSolver software, intravenous bolus administration/two compartmental model was selected for deriving our reported pharmacokinetic parameters.
For data set [4] the following is noted: mouse, in vivo, iv. The source holds these as a separate data set.
Description: as §10, §11, §12
For data set [5], the system named is phosphorylated AKT (P-Akt, S473). Description: Western blot of Akt phosphorylation in A549 cells. Type of data set: cell-based, human. As to conditions: 2 µM, 36 h, Western blot densitometry. How it is done:
(§8) A549 cells were treated with 2 µM 18 or 2 µM lapatinib (positive control). Cells without treatment were employed as a negative control. Cells were treated for 36 h, washed, and trypsinized. 35 μg of protein from each sample was loaded on Novex® 4-20% tris-glycine gels and transferred into nitrocellulose membranes. The membranes were blocked with 2% bovine serum albumin solution and incubated with primary antibodies overnight at 4 °C. Antibodies for the detection of total HER2 protein (t-HER2), phosphorylated HER2 protein (p-HER2), total AKT (t-AKT); (Cell Signaling Technology, phosphorylated AKT (P-Akt, S473); (Cell Signaling Technology) were used at 1:1000 dilution. Secondary antibodies with HRP conjugation was incubated for 1 h. After the addition of the substrate and enhancer solutions from a super signal enhanced chemiluminescence kit (Pierce, Rockford, IL) to the membrane, images were captured using ChemiDoc™ Touch Gel Imaging System (Bio-Rad), and band densities were quantified. A representative Western blot image was used for the final presentation. Data are from triplicates and are presented as the mean ± standard error of the mean (SEM). To evaluate the significance, statistical analysis was performed by a one-tail T-test using Prism Graph Pad (GraphPad Software, San Diego). P< 0.05 was considered statistically significant, [32].
A general note: In western blotting, separated proteins are transferred to a membrane and probed.

The subject of a further data set is A549 cells. As to conditions: read-out: IC50, antiproliferative activity in A549; A549 NSCLC, HER2+; 72 h, serum-free medium, CellTiter-Glo. For orientation: ATP-based viability assays read luminescence as a measure of living cells.
In a further data set the test system is HER2 phosphorylation. The data set is described as follows: Western blot of HER2 phosphorylation in lung tumor tissue. Type of data set: in vivo, mice. The conditions noted are these: tumors harvested day 35; 18 6 mg/kg, lapatinib 10 mg/kg. The procedure: as §8, with “Data are from triplicates and are presented as the mean ± standard error of the mean (SEM). To evaluate the significance, statistical analysis was performed by a one-tail T-test using Prism Graph Pad (GraphPad Software, San Diego). P< 0.05 was considered statistically significant, [32].” left out
All animal studies were conducted in accordance with NIH guidelines for care, and use of laboratory animals and protocols were approved by the Institutional Animal Care and Use Committee at the University of Louisiana Monroe. […] To evaluate the effect of the treatments, tumors were imaged, and bioluminescence was measured once a week. […]

The subject of another data set is MCF-7. The conditions noted are these: MCF-7 breast cancer, HER2-; read-out: IC50, antiproliferative activity in MCF-7; cited from earlier work.
The test system of data set [6] is phosphorylated HER2 protein (p-HER2). Description: Western blot of HER2 phosphorylation in A549 cells. The class given is cell-based, human. As to conditions: 2 µM, 36 h, Western blot densitometry. The procedure: as §8
The next data set concerns HER2 expression. More on the design: method as in ref 20 (a number printed in a supplementary file, which may have a reference list of its own: not looked up in the article's list). As to conditions: HER2-positive breast cancer xenograft, 4 mg/kg IV; cited from earlier work.
Data set [7] in a line: in vitro. The conditions noted are these: simulated gi fluid.
Description: (§13) Simulated intestinal fluid TS and simulated gastric fluid were purchased from Ricca Chemical (Arlington, TX). Pepsin (0.32 g/100 ml) was added to the simulated gastric fluid. To determine the effect of simulated gastric and intestinal fluids on 18, it (10µM) was incubated in gastric fluid with pepsin for 6 h and intestinal fluid for 12 h at 37 °C. Samples were taken at particular time intervals and analyzed using the HPLC method [33]. Methods used were similar to the methods explained above for HPLC analysis.
A further data set in a line: physchem. As to conditions: buffer, pH 1.
The target of data set [8] is human serum albumin (HSA) (Homo sapiens, UniProt P02768).
Description: Surface plasmon resonance analysis was performed in 0.01 M phosphate-buffered saline (NaCl 0.138 M; KCl -0.0027 M); Tween® 20 -0.05%, pH 7.4 using a Reichert Life Sciences System. Immobilization of HSA to the hydrophilic carboxymethylated dextran matrix of the CM5 sensor chip was carried out by the standard primary amine coupling method. […] All binding experiments were performed at a flow rate of 25 µL/min. After each interaction analysis, the sensor chip was regenerated with water. […] The Kd values were obtained using the 1:1 kinetic evaluation fitting tool of Tracedrawer software.
Another data set concerns the target T1, HER2:HER3 dimerization (Homo sapiens, UniProt P04626).
T1 construct: from tissue; host or cells: Lung tumour tissue of nude mice injected IV with A549-Red-FLuc human NSCLC cells
Description: Proximity ligation assay on lung tumor tissue, HER2:HER3. Type of data set: in vivo, mice. The conditions noted are these: 6 mg/kg, vs vehicle control. The procedure: (§9) The lung tissue samples with tumors were fixed on the slides. […] Antigen retrieval on the tissue section of slides was done in a steaming sodium citrate buffer (10 mM, 0.05% Tween 20, pH 6.0) for 15 min. Tissue slides were incubated with primary antibodies overnight at 4 °C and washed, and secondary antibodies PLA+ and PLA- were added. After incubation and washing, PLA detection reagents were added, [36]. The mounting medium was then added, and the slides were coverslipped. Slides were viewed using an Olympus BX63 fluorescence microscope fitted with deconvolution optics using DAPI, and Texas Red filters. Images were obtained at 40×.

The next data set addresses T2, EGFR:HER2 dimerization (Homo sapiens, UniProt P04626).
T2 construct: from tissue; host or cells: Lung tumour tissue of nude mice injected IV with A549-Red-FLuc human NSCLC cells
The data set is described as follows: Proximity ligation assay on lung tumor tissue, EGFR:HER2. The class given is in vivo, mice. The conditions noted are these: 6 mg/kg, vs vehicle control. The procedure: as §9

Data set [9] can be described thus: in vitro. The conditions noted are these: simulated gi fluid. The source holds these as a separate data set.
Description: as §13
Another data set deals with SKBR-3. More on the design: method as in ref 20 (Kanthala et al. Oncotarget 8(43):74244-74262). As to conditions: SKBR-3 breast cancer, HER2+; ref 20 (Kanthala et al. Oncotarget 8(43):74244-74262); read-out: IC50, antiproliferative activity in SKBR-3; cited from earlier work.
In the next data set the test system is MCF-10A. More on the design: method as in ref 20 (a number printed in a supplementary file, which may have a reference list of its own: not looked up in the article's list). As to conditions: MCF-10A non-cancerous breast cell line, basal HER2; read-out: IC50, antiproliferative activity in MCF-10A; cited from earlier work.
Data set [10] concerns lung, heart, kidney, liver tissue. The class given is in vivo, mice. The conditions noted are these: for Lung histology (H&E) compared to vehicle: day 35, 18 6 mg/kg, lapatinib 10 mg/kg. The procedure:
For histopathological analysis, lungs, kidney, liver, heart, and pancreas were excised from the mice and fixed with 10% normal formalin solution. These fixed samples were embedded in paraffin, and slides were prepared by cutting them into 5 μm slices and mounting on the glass. Prepared slides were stained using hematoxylin and eosin (H&E) staining. Slides were visualized under a microscope (Nikon labophot 2. Type120) and pictures were taken at different magnifications for analysis. Representative pictures from histopathology analysis were used for presentation.

Like-named read-outs stand apart in the source and are kept apart here. Numbered stars: 1 amine (or outer) side, 2 acyl side, 3 side chain; on linkers, the order of the positions; unused ones are H or OH. Square brackets hold non-standard residues; d marks the D form. Peptide text beside a SMILES is read from it. βAla(3R-(1-naphthyl)) = O=C(C[C@@H](N[*:1])c1cccc2ccccc12)[*:2]

Chain of human serum albumin (HSA) (P02768 25-609): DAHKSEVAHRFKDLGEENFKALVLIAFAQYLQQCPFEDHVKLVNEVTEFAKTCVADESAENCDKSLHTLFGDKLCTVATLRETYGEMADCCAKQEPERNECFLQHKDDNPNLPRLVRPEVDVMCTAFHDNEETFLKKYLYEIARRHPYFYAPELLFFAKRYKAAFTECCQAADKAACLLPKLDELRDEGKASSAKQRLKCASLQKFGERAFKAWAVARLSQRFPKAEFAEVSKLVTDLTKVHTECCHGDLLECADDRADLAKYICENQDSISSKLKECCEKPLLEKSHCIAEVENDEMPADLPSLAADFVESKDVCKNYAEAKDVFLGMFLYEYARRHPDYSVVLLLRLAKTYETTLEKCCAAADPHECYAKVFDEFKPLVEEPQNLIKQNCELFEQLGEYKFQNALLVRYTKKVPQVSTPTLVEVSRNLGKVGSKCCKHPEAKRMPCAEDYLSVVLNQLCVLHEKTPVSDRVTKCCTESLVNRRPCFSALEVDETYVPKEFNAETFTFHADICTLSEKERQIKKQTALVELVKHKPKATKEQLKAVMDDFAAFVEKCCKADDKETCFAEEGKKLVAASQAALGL
T2 sequence (P04626 23-1255): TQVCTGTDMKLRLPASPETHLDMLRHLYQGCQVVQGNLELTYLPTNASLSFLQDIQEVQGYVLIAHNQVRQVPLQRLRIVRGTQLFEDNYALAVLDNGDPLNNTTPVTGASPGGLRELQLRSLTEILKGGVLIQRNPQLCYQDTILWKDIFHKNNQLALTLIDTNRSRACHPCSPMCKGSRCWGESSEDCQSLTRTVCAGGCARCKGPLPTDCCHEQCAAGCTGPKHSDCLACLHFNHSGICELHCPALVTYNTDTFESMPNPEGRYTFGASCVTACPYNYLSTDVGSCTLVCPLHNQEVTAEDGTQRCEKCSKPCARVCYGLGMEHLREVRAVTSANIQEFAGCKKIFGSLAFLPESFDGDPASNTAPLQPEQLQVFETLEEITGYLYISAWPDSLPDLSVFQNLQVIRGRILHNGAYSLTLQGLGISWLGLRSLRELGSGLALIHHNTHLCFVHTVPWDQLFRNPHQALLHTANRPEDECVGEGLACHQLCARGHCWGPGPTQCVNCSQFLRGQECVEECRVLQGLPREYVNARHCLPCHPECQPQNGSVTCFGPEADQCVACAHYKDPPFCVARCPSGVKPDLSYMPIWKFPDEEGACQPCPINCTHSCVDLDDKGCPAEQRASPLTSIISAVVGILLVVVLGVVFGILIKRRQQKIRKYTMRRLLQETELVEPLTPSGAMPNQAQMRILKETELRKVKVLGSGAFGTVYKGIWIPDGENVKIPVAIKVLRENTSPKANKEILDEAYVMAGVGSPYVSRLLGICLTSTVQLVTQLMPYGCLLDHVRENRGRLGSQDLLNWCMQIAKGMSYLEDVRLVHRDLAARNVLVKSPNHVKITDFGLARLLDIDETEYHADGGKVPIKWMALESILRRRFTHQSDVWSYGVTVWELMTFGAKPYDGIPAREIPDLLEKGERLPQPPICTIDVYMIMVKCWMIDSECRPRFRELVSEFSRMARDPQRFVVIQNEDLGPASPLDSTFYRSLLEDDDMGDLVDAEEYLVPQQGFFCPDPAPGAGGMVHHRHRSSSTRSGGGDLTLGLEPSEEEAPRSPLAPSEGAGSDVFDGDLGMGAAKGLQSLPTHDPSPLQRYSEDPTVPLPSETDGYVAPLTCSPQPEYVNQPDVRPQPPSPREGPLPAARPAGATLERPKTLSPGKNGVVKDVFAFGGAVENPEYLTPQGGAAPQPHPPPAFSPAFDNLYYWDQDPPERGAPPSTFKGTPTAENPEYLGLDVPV
T1 sequence (P04626 23-1255): as above
Description for physchem: Shimadzu FCV-20AH2 manual injector was used with Ultra C18, 5 µm (250 × 4.6 mm) column, Shimadzu SPD-20A UV/Vis detector, and Shimadzu LC-20AP pump. 40% acetonitrile (0.1% TFA) with 60% water (0.1% TFA) was used as mobile phase. Relative Peak area was plotted as % remaining compound with respect to time compared with zero time point, and data are from triplicate experiments. For pH stability, a buffer with pH 1 was obtained by adding 0.1 M HCl, and a buffer with pH 7.5 was obtained by adding 0.1 M PBS (Sigma).

As to `N=C(N)NCCC[C@@H]1NC(=O)[C@H]2CCCN2C(=O)[C@@H]2CCCN2C(=O)[C@H](CCCNC(=N)N)NC(=O)C[C@H](c2cccc3ccccc23)NC(=O)[C@H](Cc2ccccc2)NC(=O)[C@H](CC(=O)O)NC(=O)[C@H](CC(=O)O)NC(=O)[C@H](Cc2ccccc2)NC(=O)C[C@H](c2cccc3ccccc23)NC1=O` [Compound 18] (cyclo(DDF[βAla(3R-(1-naphthyl))]RP[dP]R[βAla(3R-(1-naphthyl))]F)), the “Change of circular dichroism spectra (backbone conformation) with temperature” value in data set [1] was “did not show any significant change”. In data set [2], the “Rate of tumor growth indicated by total flux compared with vehicle” value was “decreased”. In addition, the 50% inhibitory concentration (IC50) (usually the point on the concentration scale where inhibition reaches its midpoint) in the data set with NCI-H1975 was 4850 ± 217 nM; in the data set with SKOV-3 it was 853 ± 102 nM; in the data set with A549 cells, 868 ± 32 nM; in the data set with MCF-7 it was over 50000 nM; in the data set with SKBR-3, 194 ± 46 nM; in the data set on MCF-10A, 40000 nM. The compound also gave a Vd peripheral in [3] of about 17 mL. Further, the AUC(0-inf) – broadly, total exposure, with the tail of the curve extrapolated – in [4] was about 459 µg·h/mL. Besides, the Vd (commonly a proportionality between amount in the body and measured concentration, not a real space) in data set [4] is about 0.011 L. Also, in data set [4], the clearance (in general, the rate of elimination divided by the concentration) is about 0.00433 mL/min. Also, the half-life (as a rule, how long it takes for the measured level to halve) was about 42 h in [4] (4 mg/kg, Terminal half-life); about 46 h in data set [4] (6 mg/kg, Terminal half-life); about 0.8 h in data set [4] (Distribution half-life); over 40 h in data set [4] (Terminal half-life in vivo). Moreover, the “Inhibition of phosphorylation of Akt compared to control” value in data set [5] stood at 24.7%. Also, the “HER2 phosphorylation in lung tumor tissue compared to control” value with HER2 phosphorylation is on record as “inhibited HER2 phosphorylation to a significant extent”. The “Inhibition of phosphorylation of HER2 compared to control” value in [6] is given as 41.6%. For the same compound, the “Change in HER2 expression in xenograft tumor tissue” value with HER2 expression is “no”. Also, the amount remaining (in general, the share of the starting amount still present when the sample was taken) at 12 h, 10 µM in “in vitro [7]” was over 40%. The compound also had an amount remaining at 720 h in “physchem” of over 40%. For the same compound, the “Compound in free form” value in data set [8] was about 22%. Also, the “HER2:HER3 dimerization in lung tumor tissue (PLA red fluorescence)” value at HER2:HER3 dimerization was “reduction in red fluorescence”. Further, the “EGFR:HER2 dimerization in lung tumor tissue (PLA red fluorescence)” value on EGFR:HER2 dimerization is reported as “reduction in red fluorescence”. The share remaining at 6 h, 10 µM in the data set “in vitro [9]” is over 80%. For the same compound, the “Time after which concentration decreases significantly at pH 1” value (pH 1) was over 4 days. The “Stability at pH 7.5” value (pH 7.5) is given as “stable for 30 days”. Also, the “Toxicity to organs (heart, liver, lung, kidney), H&E” value in data set [10] (6 mg/kg, three weeks of treatment) is given as “no significant tissue damage or toxic effects”. In addition, the “Lung histology (H&E) compared to vehicle” value in [10] was “remarkably fewer tumors and less inflammatory infiltration”.
Turning to `CS(=O)(=O)CCNCc1ccc(-c2ccc3ncnc(Nc4ccc(OCc5cccc(F)c5)c(Cl)c4)c3c2)o1` [lapatinib, reference compound], the “Rate of tumor growth indicated by total flux compared with vehicle” value in [2] was “decreased”. Further, the “HER2 phosphorylation in lung tumor tissue compared to control” value with HER2 phosphorylation was “inhibited HER2 phosphorylation to a significant extent”. Moreover, in data set [10], the “Lung histology (H&E) compared to vehicle” value is “remarkably fewer tumors and less inflammatory infiltration”.
